# According to patent publication US20220017877A1, “BILIRUBIN OXIDASE ACTIVITY IMPROVING METHOD, AND BILIRUBIN OXIDASE PRODUCT” (OZEKI CORPORATION, priority 2018, published 2022):
# Where two headings read alike, the source gives them in different places.
# Target: T1, recombinant BOD (bilirubin oxidase) derived from Myrothecium verrucaria MT-1 (Albifimbria verrucaria, UniProt Q12737)
# T1 construct: made in house; host or cells: Aspergillus sp
# T1 sequence (Q12737 39-572): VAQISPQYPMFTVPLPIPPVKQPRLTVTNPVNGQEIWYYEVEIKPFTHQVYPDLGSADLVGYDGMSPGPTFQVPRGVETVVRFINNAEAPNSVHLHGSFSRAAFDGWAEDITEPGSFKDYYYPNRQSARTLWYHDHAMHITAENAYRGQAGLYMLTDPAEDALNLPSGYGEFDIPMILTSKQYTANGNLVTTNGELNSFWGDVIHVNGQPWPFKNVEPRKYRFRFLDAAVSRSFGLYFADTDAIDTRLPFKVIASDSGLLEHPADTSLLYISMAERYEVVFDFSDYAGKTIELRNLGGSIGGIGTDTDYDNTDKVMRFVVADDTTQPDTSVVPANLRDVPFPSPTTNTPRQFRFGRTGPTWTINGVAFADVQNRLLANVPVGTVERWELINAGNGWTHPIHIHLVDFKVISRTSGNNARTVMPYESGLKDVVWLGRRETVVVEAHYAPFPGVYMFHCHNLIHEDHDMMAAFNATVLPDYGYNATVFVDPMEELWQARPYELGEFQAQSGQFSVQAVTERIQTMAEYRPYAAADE
# Assay: BOD activity after leaving the BOD solution with an activity improving agent at 5 to 50° C. in a deoxygenated atmosphere (Test Example 2)
# Type: biochemical
# Conditions: for BOD activity increase at 5° C. compared with not lower than 10° C.: BOD containers left at 5° C.
# Text: In Test Example 1, a BOD gene derived from a Myrothecium verrucaria MT-1 (GenBank accession number: D12579.1) was introduced into an Aspergillus sp., and then a recombinant BOD (hereinafter, also referred to simply as “BOD”) expressed in the Aspergillus sp. was purified by using a well-known technique and then used as the BOD. The BOD gene derived from the Myrothecium verrucaria MT-1 was codon-optimized in accordance with a gene sequence of the Aspergillus sp., and then introduced into the Aspergillus sp. Further, the BOD thus purified was dissolved in a 50 mM glycine-KOH (pH 8.5) buffer so that the concentration of the BOD became 1.0 mg/mL. Then, a resultant solution was used as a BOD enzyme solution.
# The enzymatic activity of the BOD was measured as follows. To 1780 μL of a 50 mM potassium phosphate buffer (pH 6.5), 200 μL of a 20 mM ABTS substrate solution was added, so that a mixed solution (1980 μL) was prepared. This mixed solution was incubated for 1 min at 37° C. Thereafter, 20 μL of a solution containing the BOD (specifically, a BOD solution for evaluation, which will be described later) was added to the mixed solution, and a resultant mixed solution (2 mL) was incubated at 37° C. While the mixed solution was incubated, the absorbance of the mixed solution at a wavelength of 436 nm was measured immediately after that addition of the BOD solution for evaluation (at 0 seconds) and thereafter every 20 seconds. On the basis of (i) the absorbance of the mixed solution at a wavelength of 436 nm immediately after the addition of the BOD solution for evaluation and (ii) the absorbance of the mixed solution at a wavelength of 436 nm after a lapse of 1 minute from the addition of the BOD solution for evaluation, calculation was carried out for obtaining an increase rate per minute of the absorbance of the mixed solution at a wavelength of 436 nm after the addition of the BOD solution for evaluation. The BOD activity (unit) in the BOD solution for evaluation was calculated from the increase rate. In the present specification, the amount of enzyme for oxidizing 1 μmol of ABTS per minute was defined as one unit.
# The following describes a specific test method in Test Example 2. A BOD solution containing an activity improving agent was prepared as in Test Example 1. Further, another BOD solution which contained no activity improving agent (to which no activity improving agent was added) was prepared and used as a control. In Test Example 2, L-ascorbic acid or uric acid was used as the activity improving agent. Moreover, the final concentration of L-ascorbic acid in the BOD solution was set to 4 mM, and the final concentration of uric acid in the BOD solution was set to 20 mM. In addition, in Test Example 2, the concentration of the BOD in the BOD enzyme solution was set to 3.0 mg/mL.
# Each of the above BOD solutions and a deoxygenating agent (Anaero Pack-Kenki manufactured by Mitsubishi Gas Chemical Company, Inc.) were included in one container (pouch) which was not permeable to oxygen. Then, the container was sealed, so that a BOD container was prepared. The BOD container was left at room temperature (approximately 25° C.) for approximately 2 hours, so that an inner atmosphere of the container became the deoxygenated atmosphere. Thereafter, the BOD container was left in a thermostatic chamber set at 5° C., 10° C., 20° C., 30° C., 40° C., or 50° C. for a certain period of time. Here, (a) the BOD solution without any additive was left for 1 day, 3 days, 7 days, 14 days, or 29 days, (b) the BOD solution containing L-ascorbic acid was left for 1 day, 3 days, 7 days, or 14 days, and (c) the BOD solution containing uric acid was left for 1 day, 3 days, 8 days, 14 days, or 28 days. Three samples (BOD containers) were prepared for each condition. After leaving the BOD containers under the above conditions, the BOD solution was collected from each of the BOD containers and used as a BOD solution for evaluation. […]
structure (smiles),measurement,setting,value
O=C1O[C@H]([C@@H](O)CO)C(O)=C1O [L-ascorbic acid],activity at 4000 µM,"4 mM, 5° C., Day 0, read-out: Activity (%) Day 0",100%
same,activity at 4000 µM,"4 mM, 5° C., Day 1, read-out: Activity (%) Day 1",92%
same,activity at 4000 µM,"4 mM, 5° C., Day 3, read-out: Activity (%) Day 3",95%
same,activity at 4000 µM,"4 mM, 5° C., Day 7, read-out: Activity (%) Day 7",107%
same,activity at 4000 µM,"4 mM, 5° C., Day 14, read-out: Activity (%) Day 14",55%
same,activity at 4000 µM,"4 mM, 10° C., Day 0, read-out: Activity (%) Day 0",100%
same,activity at 4000 µM,"4 mM, 10° C., Day 1, read-out: Activity (%) Day 1",101%
same,activity at 4000 µM,"4 mM, 10° C., Day 3, read-out: Activity (%) Day 3",120%
same,activity at 4000 µM,"4 mM, 10° C., Day 7, read-out: Activity (%) Day 7",146%
same,activity at 4000 µM,"4 mM, 10° C., Day 14, read-out: Activity (%) Day 14",147%
same,activity at 4000 µM,"4 mM, 20° C., Day 0, read-out: Activity (%) Day 0",100%
same,activity at 4000 µM,"4 mM, 20° C., Day 1, read-out: Activity (%) Day 1",115%
same,activity at 4000 µM,"4 mM, 20° C., Day 3, read-out: Activity (%) Day 3",160%
same,activity at 4000 µM,"4 mM, 20° C., Day 7, read-out: Activity (%) Day 7",195%
same,activity at 4000 µM,"4 mM, 20° C., Day 14, read-out: Activity (%) Day 14",188%
same,activity at 4000 µM,"4 mM, 30° C., Day 0, read-out: Activity (%) Day 0",100%
same,activity at 4000 µM,"4 mM, 30° C., Day 1, read-out: Activity (%) Day 1",164%
same,activity at 4000 µM,"4 mM, 30° C., Day 3, read-out: Activity (%) Day 3",205%
same,activity at 4000 µM,"4 mM, 30° C., Day 7, read-out: Activity (%) Day 7",204%
same,activity at 4000 µM,"4 mM, 30° C., Day 14, read-out: Activity (%) Day 14",229%
same,activity at 4000 µM,"4 mM, 40° C., Day 0, read-out: Activity (%) Day 0",100%
same,activity at 4000 µM,"4 mM, 40° C., Day 1, read-out: Activity (%) Day 1",212%
same,activity at 4000 µM,"4 mM, 40° C., Day 3, read-out: Activity (%) Day 3",216%
same,activity at 4000 µM,"4 mM, 40° C., Day 7, read-out: Activity (%) Day 7",215%
same,activity at 4000 µM,"4 mM, 40° C., Day 14, read-out: Activity (%) Day 14",237%
same,activity at 4000 µM,"4 mM, 50° C., Day 0, read-out: Activity (%) Day 0",100%
same,activity at 4000 µM,"4 mM, 50° C., Day 1, read-out: Activity (%) Day 1",220%
same,activity at 4000 µM,"4 mM, 50° C., Day 3, read-out: Activity (%) Day 3",211%
same,activity at 4000 µM,"4 mM, 50° C., Day 7, read-out: Activity (%) Day 7",212%
same,activity at 4000 µM,"4 mM, 50° C., Day 14, read-out: Activity (%) Day 14",238%
same,increase of BOD activity as compared with that prior to leaving,"4 mM, one day at not lower than 40° C.",≥ 2 times
same,increase of BOD activity as compared with that prior to leaving,"4 mM, seven days at 20° C.",≥ 2 times
same,increase of BOD activity as compared with that prior to leaving,"4 mM, three days at 30° C.",≥ 2 times
same,BOD activity increase at 5° C. compared with not lower than 10° C.,,not found to be increased to an extend that was achieved
"O=c1[nH]c(=O)c2[nH]c(=O)[nH]c2[nH]1 [Uric acid, uric acid]",activity at 20000 µM,"20 mM, 5° C., Day 0, read-out: Activity (%) Day 0",100%
same,activity at 20000 µM,"20 mM, 5° C., Day 1, read-out: Activity (%) Day 1",116%
same,activity at 20000 µM,"20 mM, 5° C., Day 3, read-out: Activity (%) Day 3",113%
same,activity at 20000 µM,"20 mM, 5° C., Day 8, read-out: Activity (%) Day 8",140%
same,activity at 20000 µM,"20 mM, 5° C., Day 14, read-out: Activity (%) Day 14",137%
same,activity at 20000 µM,"20 mM, 5° C., Day 28, read-out: Activity (%) Day 28",144%
same,activity at 20000 µM,"20 mM, 10° C., Day 0, read-out: Activity (%) Day 0",100%
same,activity at 20000 µM,"20 mM, 10° C., Day 1, read-out: Activity (%) Day 1",123%
same,activity at 20000 µM,"20 mM, 10° C., Day 3, read-out: Activity (%) Day 3",123%
same,activity at 20000 µM,"20 mM, 10° C., Day 8, read-out: Activity (%) Day 8",159%
same,activity at 20000 µM,"20 mM, 10° C., Day 14, read-out: Activity (%) Day 14",144%
same,activity at 20000 µM,"20 mM, 10° C., Day 28, read-out: Activity (%) Day 28",169%
same,activity at 20000 µM,"20 mM, 20° C., Day 0, read-out: Activity (%) Day 0",100%
same,activity at 20000 µM,"20 mM, 20° C., Day 1, read-out: Activity (%) Day 1",134%
same,activity at 20000 µM,"20 mM, 20° C., Day 3, read-out: Activity (%) Day 3",137%
same,activity at 20000 µM,"20 mM, 20° C., Day 8, read-out: Activity (%) Day 8",179%
same,activity at 20000 µM,"20 mM, 20° C., Day 14, read-out: Activity (%) Day 14",173%
same,activity at 20000 µM,"20 mM, 20° C., Day 28, read-out: Activity (%) Day 28",206%
same,activity at 20000 µM,"20 mM, 30° C., Day 0, read-out: Activity (%) Day 0",100%
same,activity at 20000 µM,"20 mM, 30° C., Day 1, read-out: Activity (%) Day 1",144%
same,activity at 20000 µM,"20 mM, 30° C., Day 3, read-out: Activity (%) Day 3",181%
same,activity at 20000 µM,"20 mM, 30° C., Day 8, read-out: Activity (%) Day 8",202%
same,activity at 20000 µM,"20 mM, 30° C., Day 14, read-out: Activity (%) Day 14",212%
same,activity at 20000 µM,"20 mM, 30° C., Day 28, read-out: Activity (%) Day 28",215%
same,activity at 20000 µM,"20 mM, 40° C., Day 0, read-out: Activity (%) Day 0",100%
same,activity at 20000 µM,"20 mM, 40° C., Day 1, read-out: Activity (%) Day 1",176%
same,activity at 20000 µM,"20 mM, 40° C., Day 3, read-out: Activity (%) Day 3",206%
same,activity at 20000 µM,"20 mM, 40° C., Day 8, read-out: Activity (%) Day 8",216%
same,activity at 20000 µM,"20 mM, 40° C., Day 14, read-out: Activity (%) Day 14",194%
same,activity at 20000 µM,"20 mM, 40° C., Day 28, read-out: Activity (%) Day 28",217%
same,activity at 20000 µM,"20 mM, 50° C., Day 0, read-out: Activity (%) Day 0",100%
same,activity at 20000 µM,"20 mM, 50° C., Day 1, read-out: Activity (%) Day 1",210%
same,activity at 20000 µM,"20 mM, 50° C., Day 3, read-out: Activity (%) Day 3",196%
same,activity at 20000 µM,"20 mM, 50° C., Day 8, read-out: Activity (%) Day 8",175%
same,activity at 20000 µM,"20 mM, 50° C., Day 14, read-out: Activity (%) Day 14",195%
same,activity at 20000 µM,"20 mM, 50° C., Day 28, read-out: Activity (%) Day 28",174%
same,increase of BOD activity as compared with that prior to leaving,"20 mM, eight days at 20° C.",approximately 1.8 times
same,increase of BOD activity as compared with that prior to leaving,"20 mM, three days at 30° C.",approximately 1.8 times
same,BOD activity increase at 5° C. compared with not lower than 10° C.,,not found to be increased to an extend that was achieved
